One data set concerns SW-620. As to the kind of experiment: Cytotoxicity against human SW620 cells assessed as reduction in cell viability upto 30 uM incubated for 48 hrs by MTT assay. In kind it is cell-based. Conditions: sw-620, 48 h. Background: Formazan colour is commonly taken as a measure of viable cells.
Another data set deals with NCI-H460. Nature of the data set: Cytotoxicity against human NCI-H460 cells assessed as reduction in cell viability upto 30 uM incubated for 48 hrs by MTT assay. The data set is classed as cell-based. Conditions: nci-h460, 48 h.
A further data set concerns Candida albicans. Nature of the data set: Antifungal activity against Candida albicans ATCC 90028 assessed as reduction in fungal growth at 0.01 to 30 uM incubated for 24 hrs by spectrophotometry based broth microdilution assay. In kind it is functional, organism-based.
For a further data set, the system named is Bacillus subtilis. Nature of the data set: Antibacterial activity against Bacillus subtilis ATCC 6633 assessed as reduction in […] growth at 0.01 to 30 uM incubated for 24 hrs by spectrophotometry based broth microdilution assay. The data set is classed as functional, organism-based.
Data set [1] relates to Staphylococcus aureus. Nature of the data set: Antibacterial activity against Staphylococcus aureus ATCC 9144 assessed as reduction in […] growth at 0.01 to 30 uM incubated for 24 hrs by spectrophotometry based broth microdilution assay. In kind it is functional, organism-based. A general note: In broth dilution the organism is exposed to a series of concentrations in liquid medium.

The next data set concerns Streptococcus pyogenes. Nature of the data set: Antibacterial activity against Streptococcus pyogenes ATCC 12344 assessed as reduction in […] growth at 0.01 to 30 uM incubated for 24 hrs by spectrophotometry based broth microdilution assay. The data set is classed as functional, organism-based.
Data set [2] concerns Escherichia coli. As to the kind of experiment: Antibacterial activity against Escherichia coli ATCC 11775 assessed as reduction in […] growth at 0.01 to 30 uM incubated for 24 hrs by spectrophotometry based broth microdilution assay. The data set is classed as functional, organism-based.
The test system of data set [3] is Staphylococcus aureus. Nature of the data set: Antibacterial activity against methicillin-resistant Staphylococcus aureus AUS-RBWH-MRSA-02 assessed as reduction in […] growth at 0.01 to 30 uM incubated for 24 hrs by spectrophotometry based broth microdilution assay. The data set is classed as functional, organism-based.
Data set [4] relates to Escherichia coli. As to the kind of experiment: Antibacterial activity against Escherichia coli KUW-kw-AmH-11 assessed as reduction in […] growth at 0.01 to 30 uM incubated for 24 hrs by spectrophotometry based broth microdilution assay. In kind it is functional, organism-based.
Data set [5] concerns Pseudomonas aeruginosa. Nature of the data set: Antibacterial activity against IMP producing Pseudomonas aeruginosa UAE-DBI-ZMH-91 assessed as reduction in […] growth at 0.01 to 30 uM incubated for 24 hrs by spectrophotometry based broth microdilution assay. In kind it is functional, organism-based.
The subject of data set [6] is Pseudomonas aeruginosa. Nature of the data set: Antibacterial activity against VIM producing Pseudomonas aeruginosa SA-EP-KFUH-40 assessed as reduction in […] growth at 0.01 to 30 uM incubated for 24 hrs by spectrophotometry based broth microdilution assay. The data set is classed as functional, organism-based.
Data set [7] has as its system Klebsiella pneumoniae. Nature of the data set: Antibacterial activity against NDM-producing Klebsiella pneumoniae SA-Rd-KAMC-037 assessed as reduction in […] growth at 0.01 to 30 uM incubated for 24 hrs by spectrophotometry based broth microdilution assay. In kind it is functional, organism-based.
Data set [8] concerns Klebsiella pneumoniae. As to the kind of experiment: Antibacterial activity against OXA-48-producing Klebsiella pneumoniae SA-Rd-KAMC-014 assessed as reduction in […] growth at 0.01 to 30 uM incubated for 24 hrs by spectrophotometry based broth microdilution assay. The data set is classed as functional, organism-based.
A further data set relates to Acinetobacter baumannii. As to the kind of experiment: Antibacterial activity against OXA-23-producing Acinetobacter baumannii SA-Rd-KAMC-083 assessed as reduction in […] growth at 0.01 to 30 uM incubated for 24 hrs by spectrophotometry based broth microdilution assay. In kind it is functional, organism-based.
Data set [9] deals with Enterococcus faecalis. As to the kind of experiment: Antibacterial activity against vancomycin-resistant Enterococcus faecalis AUS-RBWH-VRE-01 assessed as reduction in […] growth incubated for 24 hrs by spectrophotometry based broth microdilution assay. In kind it is functional, organism-based. The conditions noted are these: Enterococcus faecalis, AUS-RBWH-VRE-01, 24 h; read-out: IC50.

For data set [10], the system named is Enterococcus faecalis. Nature of the data set: Antibacterial activity against vancomycin-resistant Enterococcus faecalis AUS-RBWH-VRE-01 assessed as fold reduction in growth by measuring colony formation unit at 30 uM incubated for 24 hrs by time kill assay. The data set is classed as functional.
Data set [11] is described as follows: Prodrug conversion in vancomycin-resistant Enterococcus faecalis AUS-RBWH-VRE-01 assessed as hydrolysis product butenolide formation at 30 uM incubated for 24 hrs by UHPLC-DAD-ESIMS analysis. In kind it is ADME.
Data set [12] in a line: Prodrug conversion in vancomycin-resistant Enterococcus faecalis AUS-RBWH-VRE-01 assessed as hydrolysis product trivirensol B formation at 30 uM incubated for 24 hrs by UHPLC-DAD-ESIMS analysis. In kind it is ADME.
Data set [13] concerns Enterococcus faecalis. As to the kind of experiment: Antibacterial activity against vancomycin-resistant Enterococcus faecalis AUS-RBWH-VRE-01 assessed as colony formation unit at 30 uM incubated for 24 hrs by time kill assay. The data set is classed as functional.
Data set [14] in a line: Prodrug conversion in vancomycin-resistant Enterococcus faecalis AUS-RBWH-VRE-01 assessed as hydrolysis product divirensol B formation at 30 uM incubated for 24 hrs by UHPLC-DAD-ESIMS analysis. In kind it is ADME.
Data set [15] is described as follows: Prodrug conversion in vancomycin-resistant Enterococcus faecalis AUS-RBWH-VRE-01 assessed as hydrolysis product butenolide formation at 30 uM incubated for 3-6 hrs by UHPLC-DAD-ESIMS analysis. In kind it is ADME.

The source made the active and inactive calls. The calls are words filed in the database; no cut-off is given here.

Usually IC50 stands for the concentration at which inhibition is half-maximal. Take `CC(C)[C@H]1CC[C@@](O)(COC(=O)C2=C[C@@H]3[C@@H](C(C)C)CC[C@@](O)(COC(=O)/C(=C/[C@@H]4[C@@H](C(C)C)CC[C@@]5(O)COC(=O)[C@@H]45)CO)[C@H]3C(=O)OC2)[C@H]2C(=O)OCC(C(=O)O)=C[C@H]12`: the Activity entry in the data set with SW-620 and in the data set with NCI-H460 was “Non-Toxic” each time. Moreover, the result in the data set on Candida albicans, in the data set on Bacillus subtilis, with Staphylococcus aureus [1], with Streptococcus pyogenes, in the data set on Escherichia coli [2] and in the data set with Staphylococcus aureus [3] was inactive. The result in the data set on Escherichia coli [4], with Pseudomonas aeruginosa [5], with Pseudomonas aeruginosa [6], in the data set with Klebsiella pneumoniae [7], in the data set on Klebsiella pneumoniae [8] and in the data set on Acinetobacter baumannii was inactive. In addition, the concentration for half-maximal inhibition (IC50) with Enterococcus faecalis [9] came out at 8 µM. In the data set with Enterococcus faecalis [10], the “fold change (FC)” value is 10000. Further, the Drug metabolism result in data set [11] is given as “Metabolite_Notdetected”; in data set [12], “Metabolite_Detected”.

In the case of `CCCCCCCCCC(=O)N[C@@H](Cc1c[nH]c2ccccc12)C(=O)N[C@H](CC(N)=O)C(=O)N[C@@H](CC(=O)O)C(=O)N[C@@H]1C(=O)NCC(=O)N[C@@H](CCCN)C(=O)N[C@@H](CC(=O)O)C(=O)N[C@H](C)C(=O)N[C@@H](CC(=O)O)C(=O)NCC(=O)N[C@H](CO)C(=O)N[C@@H]([C@H](C)CC(=O)O)C(=O)N[C@@H](CC(=O)c2ccccc2N)C(=O)O[C@@H]1C`, the Activity in the data set on Enterococcus faecalis [13] is reported as 50 CFU/ml.

For `CC(C)[C@H]1CC[C@@](O)(COC(=O)C2=C[C@@H]3[C@@H](C(C)C)CC[C@@](O)(COC(=O)/C(=C/[C@H]4C5=C(CC[C@@H]4C(C)C)COC5=O)CO)[C@H]3C(=O)OC2)[C@H]2C(=O)OCC(C(=O)O)=C[C@H]12`, the Activity entry in the data set on SW-620 and in the data set on NCI-H460 was “Non-Toxic” each time. In addition, the outcome in the data set on Candida albicans, with Bacillus subtilis, in the data set on Staphylococcus aureus [1], in the data set on Streptococcus pyogenes, in the data set on Escherichia coli [2] and in the data set on Staphylococcus aureus [3] was inactive. Further, the outcome in the data set on Escherichia coli [4], in the data set on Pseudomonas aeruginosa [5], in the data set on Pseudomonas aeruginosa [6], in the data set with Klebsiella pneumoniae [7], in the data set on Klebsiella pneumoniae [8] and in the data set on Acinetobacter baumannii was inactive. Moreover, the IC50 in the data set on Enterococcus faecalis [9] worked out at 1.6 µM. For the same compound, the “fold change (FC)” value with Enterococcus faecalis [10] amounted to 10000.

On to `CC(C)[C@H]1CC[C@@](O)(COC(=O)/C(=C/[C@@H]2[C@@H](C(C)C)CC[C@@]3(O)COC(=O)[C@@H]23)CO)[C@H]2C(=O)OCC(C(=O)O)=C[C@H]12`, for which the Activity result in the data set on SW-620 and with NCI-H460 was “Non-Toxic” in each case. The outcome with Candida albicans, with Bacillus subtilis, in the data set with Staphylococcus aureus [1], in the data set on Streptococcus pyogenes, in the data set on Escherichia coli [2] and with Staphylococcus aureus [3] was inactive. Besides, the result with Escherichia coli [4], in the data set on Pseudomonas aeruginosa [5], in the data set on Pseudomonas aeruginosa [6], in the data set with Klebsiella pneumoniae [7], in the data set with Klebsiella pneumoniae [8] and in the data set on Acinetobacter baumannii was inactive. Moreover, in the data set on Enterococcus faecalis [10], the result was Active. In addition, the Drug metabolism result in [11] is recorded as “Metabolite_Notdetected”; in data set [14], “Metabolite_Detected”.

For `CC(C)[C@H]1CC[C@@](O)(COC(=O)/C(=C/[C@@H]2[C@@H](C(C)C)CC[C@@](O)(COC(=O)/C(=C/[C@H]3C4=C(CC[C@@H]3C(C)C)COC4=O)CO)[C@H]2C(=O)O)CO)[C@H]2C(=O)OCC(C(=O)O)=C[C@H]12`, the Activity entry in the data set on SW-620 and in the data set on NCI-H460 was “Non-Toxic” throughout. Besides, the outcome with Candida albicans, in the data set with Bacillus subtilis, with Staphylococcus aureus [1], with Streptococcus pyogenes, in the data set on Escherichia coli [2] and with Staphylococcus aureus [3] was inactive. Moreover, the outcome in the data set on Escherichia coli [4], in the data set with Pseudomonas aeruginosa [5], in the data set with Pseudomonas aeruginosa [6], in the data set with Klebsiella pneumoniae [7], in the data set on Klebsiella pneumoniae [8] and in the data set on Acinetobacter baumannii was inactive. Further, the IC50 with Enterococcus faecalis [9] was 1 µM. In addition, the “fold change (FC)” value in the data set with Enterococcus faecalis [10] amounted to 10000.

With `CC(C)[C@H]1CC[C@@](O)(COC(=O)/C(=C/[C@@H]2[C@@H](C(C)C)CC[C@@]3(O)COC(=O)[C@@H]23)CO)[C@@H](C(=O)O)[C@@H]1/C=C(\CO)C(=O)O[C@@]12CC[C@H](C(C)C)[C@@H](/C=C(\CO)C(=O)O)[C@@H]1C(=O)OC2`, the Activity result in the data set with SW-620 and in the data set on NCI-H460 was “Non-Toxic” throughout. Further, the result with Candida albicans, with Bacillus subtilis, with Staphylococcus aureus [1], with Streptococcus pyogenes, in the data set on Escherichia coli [2] and with Staphylococcus aureus [3] was inactive. For the same compound, the result in the data set with Escherichia coli [4], in the data set with Pseudomonas aeruginosa [5], in the data set on Pseudomonas aeruginosa [6], in the data set with Klebsiella pneumoniae [7], with Klebsiella pneumoniae [8] and in the data set on Acinetobacter baumannii was inactive. In addition, the 50% inhibitory concentration (IC50) in the data set on Enterococcus faecalis [9] came to 10 µM. In addition, the “fold change (FC)” value in the data set on Enterococcus faecalis [10] worked out at 1000. The figures for the Drug metabolism entry in data set [11] and in data set [15] were “Metabolite_Notdetected” and “Metabolite_Detected”, respectively.
